Measured values from patent US10131642B1, “Aldosterone synthase inhibitors” (Boehringer Ingelheim International GmbH, priority 2015, dated 2018).

Columns and labels:
[1] = molecular target: T1, aldosterone synthase (CYP11B2) (Macaca fascicularis, UniProt A0A2K5UPL9); test: Inhibition of aldosterone synthase (cynomolgus adrenal mitochondria, aldosterone by mass spectrometry); type: biochemical, cynomolgus monkey; conditions: cynomolgus adrenal gland mitochondria, 2 μM corticosterone substrate, 90 minutes at 37° C.
T1 construct: cynomolgus adrenal gland mitochondria as the source of aldosterone synthase (CYP11B2); from tissue; host or cells: cynomolgus monkey adrenal gland mitochondria
T1 sequence (A0A2K5UPL9 1-503): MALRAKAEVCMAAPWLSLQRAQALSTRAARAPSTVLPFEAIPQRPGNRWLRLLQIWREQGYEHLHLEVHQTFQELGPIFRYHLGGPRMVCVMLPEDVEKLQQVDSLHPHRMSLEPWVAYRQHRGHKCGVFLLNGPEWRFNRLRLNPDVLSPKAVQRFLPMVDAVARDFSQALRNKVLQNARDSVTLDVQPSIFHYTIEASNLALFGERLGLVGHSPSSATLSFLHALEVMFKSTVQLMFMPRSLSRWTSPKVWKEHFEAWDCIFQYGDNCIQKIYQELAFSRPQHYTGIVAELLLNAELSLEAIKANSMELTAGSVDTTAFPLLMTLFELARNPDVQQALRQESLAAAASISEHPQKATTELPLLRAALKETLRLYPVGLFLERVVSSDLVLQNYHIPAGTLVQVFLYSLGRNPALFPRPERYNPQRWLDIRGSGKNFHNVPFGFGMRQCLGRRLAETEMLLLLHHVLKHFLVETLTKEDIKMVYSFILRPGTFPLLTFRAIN
Procedure, shortened: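 Cynomolgus adrenal mitochondria (50 units CYP11B2 activity) with 2 μM corticosterone in 100 mM potassium phosphate pH 7.4, 1% DMSO. Started with 1 mM NADPH, 90 min at 37° C. Aldosterone measured by mass spectrometry; IC50 from 4-parameter logistic fit, NADPH-free reactions as blank.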

[2] = molecular target: cortisol synthase (CYP11B1) (Macaca fascicularis, UniProt A0A2K5ULY1); test: Inhibition of cortisol synthesis (cynomolgus adrenal mitochondria, cortisol by mass spectrometry); type: biochemical, cynomolgus monkey; conditions: cynomolgus adrenal gland mitochondria, 11-deoxycortisol as substrate, cortisol measured as product; read-out: CYP11B1 Inhibition IC50
Procedure, shortened: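 Cynomolgus adrenal mitochondria supplied CYP11B1 (150 units) with 11-deoxycortisol as substrate, plus NADPH; cortisol product measured by mass spectrometry. Activity expressed as % of compound-free NADPH control across compound concentrations; IC50 from 4-parameter logistic fit.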

Row | Structure (SMILES) | IC50 [1] [nM] | IC50 [2] [nM]
1 | CC1(C)CC(=O)c2c(noc2Cc2ccc(C(=O)O)cc2)C1 [Cpd 40, 4-(6,6-Dimethyl-4-oxo-4,5,6,7-tetrahydro-benzo[c]isoxazol-3-ylmethyl)-benzoic acid] | > 1000 | > 100000
2 | CC1CC(=O)c2c(noc2Cc2ccc(C(=O)N3CCN(C)C(=O)C3)cc2)C1 (stereo not drawn) [Cpd 66, 6-Methyl-3-[4-(4-methyl-3-oxo-piperazine-l-carbonyl)-benzyl]-6,7-dihydro-5H-benzo[c]isoxazol-4-one] | 120 | 5000
3 | CC1(C)CC(=O)c2c(noc2Cc2ccc(OCCS(C)(=N)=O)cc2)C1 (stereo not drawn) [Cpd 85, 3-[4-(2-Methanesulfoximine-ethoxy)-benzyl]-6,6-dimethyl-6,7-dihydro-5H-benzo[c]isoxazol-4-one] | 56 | 6500
4 | O=C1CC(CC2CC2)Cc2noc(Cc3ccccc3)c21 (stereo not drawn) [Cpd 2, 3-Benzyl-6-cyclopropylmethyl-6,7-dihydro-5H-benzo[c]isoxazol-4-one] | 11 | 5000
5 | CC(C)N(CCO)C(=O)c1ccc(Cc2onc3c2C(=O)CC(C)(C)C3)cc1 [Cpd 67, 4-(6,6-Dimethyl-4-oxo-4,5,6,7-tetrahydro-benzo[c]isoxazol-3-ylmethyl)-N-(2-hydroxy-ethyl)-N-isopropyl-benzamide] | 120 | 7300
6 | CC1(C)Cc2noc(Cc3ccc(F)cc3)c2C(=O)O1 [Cpd 88, 3-(4-Fluoro-benzyl)-6,6-dimethyl-6,7-dihydro-pyrano[4,3-c]isoxazol-4-one] | 190 | 25000
7 | COCCN(C)C(=O)c1ccc(Cc2onc3c2C(=O)CC(C)(C)C3)cc1 [Cpd 56, 4-(6,6-Dimethyl-4-oxo-4,5,6,7-tetrahydro-benzo[c]isoxazol-3-ylmethyl)-N-(2-methoxy-ethyl)-N-methyl-benzamide] | 69 | 11000
8 | CC1(C)CC(=O)c2c(noc2Cc2ccc(C(=O)NCCS(C)(=O)=O)cc2)C1 [Cpd 61, 4-(6,6-Dimethyl-4-oxo-4,5,6,7-tetrahydro-benzo[c]isoxazol-3-ylmethyl)-N-(2-methanesulfonyl-ethyl)-benzamide] | 91 | 7400
9 | CC1(C)Cc2noc(Cc3ccc(C(=O)NCCS(C)(=O)=O)cc3)c2C(=O)O1 [Cpd 94, 4-(6,6-Dimethyl-4-oxo-6,7-dihydro-4H-pyrano[4,3-c]isoxazol-3-ylmethyl)-N-(2-methanesulfonyl-ethyl)-benzamide] | 42 | 4300
10 | CN(CCO)C(=O)c1ccc(Cc2onc3c2C(=O)CC(C)(C)C3)cc1 [Cpd 59, 4-(6,6-Dimethyl-4-oxo-4,5,6,7-tetrahydro-benzo[c]isoxazol-3-ylmethyl)-N-(2-hydroxy-ethyl)-N-methyl-benzamide] | 92 | 11000
11 | CC1(C)CC(=O)c2c(noc2Cc2ccc(C(=O)NCCS(N)(=O)=O)cc2)C1 [Cpd 54, 4-(6,6-Dimethyl-4-oxo-4,5,6,7-tetrahydro-benzo[c]isoxazol-3-ylmethyl)-N-(2-sulfamoyl-ethyl)-benzamide] | 58 | 2500
12 | CC1(C)CC(=O)c2c(noc2Cc2ccc(C(=O)NCC3(O)CC3)cc2)C1 [Cpd 69, 4-(6,6-Dimethyl-4-oxo-4,5,6,7-tetrahydro-benzo[c]isoxazol-3-ylmethyl)-N-(1-hydroxy-cyclopropylmethyl)-benzamide] | 160 | 13000
13 | CC1(C)CC(=O)c2c(noc2Cc2ccc(C(=O)N3CCNC(=O)C3)cc2)C1 [Cpd 62, 6,6-Dimethyl-3-[4-(3-oxo-piperazine-1-carbonyl)-benzyl]-6,7-dihydro-5H-benzo[c]isoxazol-4-one] | 98 | 20000
14 | CC1(C)CC(=O)c2c(noc2Cc2ccc(OCCCC(N)=O)cc2)C1 [Cpd 78] | 24 | 3300
15 | O=C(O)c1ccc(Cc2onc3c2C(=O)CC(Cc2ccccc2)C3)cc1 (stereo not drawn) [Cpd 42, 4-(6-Benzyl-4-oxo-4,5,6,7-tetrahydro-benzo[c]isoxazol-3-ylmethyl)-benzoic acid] | 180 | > 100000
